Assay results reported in article PMC8607422, “Development of a novel TLR8 agonist for cancer immunotherapy” (Molecular Biomedicine, 2020).

Legend:
[1] = system: EMT6 mouse breast cancer cells; assay: EMT6 mouse syngeneic breast cancer model; type: in vivo; details: AZD-1775 30 mg/kg po bid
Procedure: All the animal experiments were conducted following Association for Assessment and Accreditation of Laboratory Animal Care (AAALAC)‘s guideline. The animal protocols were approved by the Institutional Animal Care and Use Committee (IACUC). Cell lines were purchased from credible vendors including ATCC. After tumor cell inoculation, the animals were checked daily for morbidity and mortality. At the time of routine monitoring, the animals were checked for any effects of tumor growth and treatment on the animals’ well-being such as mobility, food and water consumption, body weight gain/loss, matting and any other abnormalities. Clinical observations were recorded. Tumor volumes were measured twice a week in two dimensions using a caliper and the volume was expressed in mm^3 using the formula: V = 0.5 a × b^2 where a and b are the long and short diameters of the tumor, respectively. The procedures of dosing as well as tumor and body weight measurement were conducted in a laminar flow cabinet.
For EMT6 experiments, EMT6 mouse breast cancer cells were cultured in vitro as a monolayer culture in RPMI1640 medium supplemented with 10% fetal bovine serum and 1% penicillin/streptomycin at 37°C in an atmosphere of 5% CO2 in air. […] The cells growing in the exponential growth phase were harvested and counted for tumor inoculation. […]

[2] = biological target: T1, hTLR7 (Homo sapiens, UniProt Q9NYK1); assay: HEK-Blue hTLR7 SEAP reporter agonist assay; type: cell-based; details: positive control
T1 construct: host or cells: HEK-Blue hTLR7
T1 sequence (Q9NYK1 27-1049): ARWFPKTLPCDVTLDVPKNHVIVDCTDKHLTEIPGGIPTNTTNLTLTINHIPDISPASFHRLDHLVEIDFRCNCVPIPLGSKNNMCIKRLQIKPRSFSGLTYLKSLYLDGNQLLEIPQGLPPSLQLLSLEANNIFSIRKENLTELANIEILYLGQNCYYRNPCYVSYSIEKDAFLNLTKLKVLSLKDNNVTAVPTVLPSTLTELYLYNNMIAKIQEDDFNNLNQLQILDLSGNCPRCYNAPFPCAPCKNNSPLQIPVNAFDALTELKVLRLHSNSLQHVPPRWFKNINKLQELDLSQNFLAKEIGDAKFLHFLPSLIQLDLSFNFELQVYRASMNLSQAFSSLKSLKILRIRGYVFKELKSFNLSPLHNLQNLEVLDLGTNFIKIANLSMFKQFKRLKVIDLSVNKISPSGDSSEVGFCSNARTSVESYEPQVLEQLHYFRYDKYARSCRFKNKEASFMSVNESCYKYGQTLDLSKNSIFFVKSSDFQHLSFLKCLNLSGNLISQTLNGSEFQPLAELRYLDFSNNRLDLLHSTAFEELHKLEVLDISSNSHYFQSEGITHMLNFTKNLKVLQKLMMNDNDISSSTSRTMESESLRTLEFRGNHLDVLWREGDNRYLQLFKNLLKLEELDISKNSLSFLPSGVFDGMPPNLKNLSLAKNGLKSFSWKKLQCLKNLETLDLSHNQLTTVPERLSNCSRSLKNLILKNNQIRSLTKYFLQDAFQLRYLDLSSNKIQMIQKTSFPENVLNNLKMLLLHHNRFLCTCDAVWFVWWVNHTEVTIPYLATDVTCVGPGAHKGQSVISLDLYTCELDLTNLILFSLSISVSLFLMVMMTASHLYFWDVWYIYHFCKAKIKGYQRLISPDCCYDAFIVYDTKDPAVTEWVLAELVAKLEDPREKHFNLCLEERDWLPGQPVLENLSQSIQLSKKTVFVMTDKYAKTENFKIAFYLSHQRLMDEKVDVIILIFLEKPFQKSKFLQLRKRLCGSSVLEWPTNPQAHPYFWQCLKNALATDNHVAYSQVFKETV
Source text: HEK-Blue™ hTLR4, 7, 8 and 9 cell lines were purchased from InvivoGen (Hong Kong). The cells express the human TLR gene and NF-κB/AP-1-inducible SEAP (secreted embryonic alkaline phosphatase) reporter gene. SEAP levels produced upon TLR stimulation can be determined by QUANTI-Blue™. In the cell-based assay, the main reagents used were QUANTI-Blue™ (InvivoGen) and ATPlite 1 Step (Perkin Elmer). The main instruments used were the microplate reader SpectraMax 340PC (Molecular Device) and Envision (Perkin Elmer). Motolimod and DN052 were synthesized in house. […] The compounds were in 10 mM stock solution in DMSO and stored at − 20°C. The compounds were serially diluted in the concentration range from 0.5 nM to 15 μM (up to 50 μM in the hTLR4, hTLR7 and hTLR9 assays) and added to 96-well plates. DMSO was used as the negative control. LPS-EK, R848, motolimod and ODN2006 were used as the positive control for TLR4, 7, 8 and 9, respectively. The cells were cultured and treated with the compounds at 37°C, 5%CO2 for 24 h. […] After 1.5 h of incubation, the optical density was measured using the spectrophotometer at 650 nm in the microplate reader of SpectraMax 340PC. The cell viability of each well was determined using ATPlite 1 Step following the manufacturer’s instruction. The luminescence signal in each well of plates was measured in the microplate reader of Envision.

activity of positive control in TLR7 assay [2] | Compound | response of EMT6 model to single agent [1]
 | C=CCn1c(=O)c2cnc(Nc3ccc(N4CCN(C)CC4)cc3)nc2n1-c1cccc(C(C)(C)O)n1 [AZD-1775] | largely resistant
active | CCOCc1nc2c(N)nc3ccccc3c2n1CC(C)(C)O [R848] | 
